Experimental data: patent publication US7501428B2, “Quinazoline thiazolinones” (Hoffmann-La Roche Inc., priority 2004, dated 2009)

These compounds were tested against T1, recombinant human CDK1/Cyclin B complex (Homo sapiens, UniProt P06493) (assay: CDK1/Cyclin B kinase assay (FlashPlate or HTRF)). Conditions: Rb protein substrate, Ki=IC50/(1+[S]/Km).
T1 construct: made in house; host or cells: High Five insect cells (baculovirus) for CDK1/GST-cyclin B; M15 E. coli for the Rb substrate
Type: biochemical
Method: To determine inhibition of CDK1 activity, either FlashPlate™ (NEN™-Life Science Products) assay or HTRF assay was performed. Both types of kinase assays were carried out using recombinant human CDK1/Cyclin B complex. GST-cyclinB (GST-cycB) and CDK1 cDNA clones in baculovirus vectors were provided by Dr. W. Harper at the Baylor College of Medicine, Houston, Tex. Proteins were co-expressed in High Five™ insect cells and the complex was purified on glutathione Sepharose resin (Pharmacia, Piscataway, N.J.) as previously described (Harper, J. W. et al. Cell 1993, 75, 805-816). A 6×-Histidine tagged truncated form of retinoblastoma (Rb) protein (amino acid 386-928) was used as the substrate for the CDK1/Cyclin B assay (the expression plasmid was provided by Dr. Veronica Sullivan, Department of Molecular Virology, Roche Research Centre, Welwyn Garden City, United Kingdom). The Rb protein is a natural substrate for phosphorylation by CDK1 (see Herwig and Strauss Eur. J. Biochem. Vol. 246 (1997) pp. 581-601 and the references cited therein). The expression of the 62Kd protein was under the control of an IPTG inducible promoter in an M15 E. coli strain. Cells were lysed by sonication and purification was carried out by binding lysates at pH 8.0 to a Ni-chelated agarose column pretreated with 1 mM imidazole. The resin was then washed several times with incrementally decreasing pH buffers to pH 6.0, and eluted with 500 mM imidazole. Eluted protein was dialyzed against 20 mM HEPES pH 7.5, 30% glycerol, 200 mM NaCl, and 1 mM DTT. Purified Rb fusion protein stocks were quantitated for protein concentration, aliquoted, and stored at −70° C.
For the FlashPlate kinase assay, 96-well FlashPlates were coated with Rb protein at 10 μg/ml, using 100 μl per well. Plates were incubated at 4° C. overnight or at room temperature for 3 hours on a shaker. […] Plates were washed four times with the wash buffer, sealed, and counted on the TopCount scintillation counter (Packard Instrument Co., Downers Grove, Ill.]. The percent inhibition of Rb phosphorylation, which is a measure of the inhibition of CDK activity, was determined according to the following formula:
[formula] where “test compound” refers to the average counts per minute of the test duplicates, “nonspecific” refers to the average counts per minute when no CDK1/Cyclin B, etc., was added, and “total” refers to the average counts per minute when no compound was added. […] The value of the inhibitor constant Ki is calculated by the following: Ki=IC50/(1+[S]/Km), where [S] is the ATP concentration and Km is Michaelis constant.
The Homogeneous Time Resolved Fluorescence (HTRF) kinase assay was carried out in 96-well polypropylene plates (BD Biosciences, Bedford, Mass.). […]

T1 sequence (P06493 whole entry): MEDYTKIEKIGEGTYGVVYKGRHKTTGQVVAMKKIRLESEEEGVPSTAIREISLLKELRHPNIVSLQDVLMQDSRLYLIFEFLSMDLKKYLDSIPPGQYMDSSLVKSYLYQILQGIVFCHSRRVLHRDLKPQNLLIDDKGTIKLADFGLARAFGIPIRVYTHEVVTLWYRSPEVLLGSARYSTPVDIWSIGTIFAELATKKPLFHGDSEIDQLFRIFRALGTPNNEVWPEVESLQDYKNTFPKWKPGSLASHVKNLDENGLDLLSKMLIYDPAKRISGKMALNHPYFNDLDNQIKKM
T1 sequence (P14635 whole entry partner): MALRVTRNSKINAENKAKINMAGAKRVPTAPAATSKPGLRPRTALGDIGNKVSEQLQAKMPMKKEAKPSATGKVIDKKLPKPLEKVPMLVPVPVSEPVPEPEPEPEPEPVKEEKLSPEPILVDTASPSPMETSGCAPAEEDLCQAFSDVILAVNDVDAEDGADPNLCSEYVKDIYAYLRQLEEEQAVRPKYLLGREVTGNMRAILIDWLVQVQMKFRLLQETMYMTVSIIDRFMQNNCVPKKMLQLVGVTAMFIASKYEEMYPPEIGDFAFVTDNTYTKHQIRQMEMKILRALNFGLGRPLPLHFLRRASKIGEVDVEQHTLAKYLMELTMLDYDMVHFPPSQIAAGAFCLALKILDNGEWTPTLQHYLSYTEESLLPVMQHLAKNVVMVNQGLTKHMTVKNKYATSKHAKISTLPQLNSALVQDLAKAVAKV

Ki	SMILES
1220 nM	O=C1N=C(NCc2cccs2)S/C1=C\c1ccc2ncncc2c1 [Example 1, 5-[1-Quinazolin-6-yl-meth-(Z)-ylidene]-2-[(thiophen-2-ylmethyl)-amino]-thiazol-4-one]
1840 nM	COc1cc(F)ccc1NC1=NC(=O)/C(=C/c2ccc3ncncc3c2)S1 [Example 5, 2-(4-Fluoro-2-methoxy-phenylamino)-5-[1-quinazolin-6-yl-meth-(Z)-ylidene]-thiazol-4-one]
881 nM	O=C1N=C(NCCc2cccc(F)c2)S/C1=C\c1ccc2ncncc2c1 [Example 3, 2-[2-(3-Fluoro-phenyl)-ethylamino]-5-[1-quinazolin-6-yl-meth-(Z)-ylidene]-thiazol-4-one]
1110 nM	O=C1N=C(N[C@@H](CO)Cc2ccccc2)S/C1=C\c1ccc2ncncc2c1 [Example 7, 2-((R)-1-Hydroxymethyl-2-phenyl-ethylamino)-5-[1-quinazolin-6-yl-meth-(Z)-ylidene]-thiazol-4-one]
